Values belong to the molecule of their own block, whether it stands above or below them.
Experiments:
[1] = biological target: T1, Voltage-dependent L-type calcium channel subunit alpha-1C (Cavia porcellus, UniProt O35505); assay: (§1) Inhibition of L-type calcium channel measured using whole-cell patch clamp in guinea pig ventricular myocytes; format: functional, cell-based, Heart, Ventricular myocyte; design: ca sol conc 1 mM, temp room
[2] = biological target: T1, Voltage-dependent L-type calcium channel subunit alpha-1C; assay: as §1; format: functional, cell-based, Heart, Ventricular myocyte; design: ca sol conc 1 mM, temp room; remark: listed apart in the source
[3] = biological target: T1, Voltage-dependent L-type calcium channel subunit alpha-1C; assay: as §1; format: functional, cell-based, Heart, Ventricular myocyte; design: ca sol conc 1.8 mM, temp 36-37 C
[4] = biological target: T1, Voltage-dependent L-type calcium channel subunit alpha-1C; assay: as §1; format: functional, cell-based, Heart, Ventricular myocyte; design: ca sol conc 1.8 mM, temp 32-33 C
[5] = biological target: T1, Voltage-dependent L-type calcium channel subunit alpha-1C; assay: as §1; format: functional, cell-based, Heart, Ventricular myocyte; design: ca sol conc 1.8 mM, temp room
[6] = biological target: T2, Voltage-dependent L-type calcium channel subunit alpha-1C (Rattus norvegicus, UniProt P22002); assay: (§2) Inhibition of L-type calcium channel measured using whole-cell patch clamp in rat ventricular myocytes; format: functional, cell-based, Heart, Ventricular myocyte; design: ca sol conc 1 mM, temp 20-24 C
[7] = biological target: T3, Voltage-dependent L-type calcium channel subunit alpha-1C (Homo sapiens, UniProt Q13936); assay: (§3) Inhibition of L-type calcium channel measured using 2-electrode voltage-clamp in Xenopus oocyte heterologically expressing alpha-1C subunit; format: functional, cell-based; design: ca sol conc 0 mM, temp room
[8] = biological target: T3, Voltage-dependent L-type calcium channel subunit alpha-1C; assay: as §3; format: functional, cell-based; design: ca sol conc 0 mM, temp room; remark: listed apart in the source
[9] = biological target: T3, Voltage-dependent L-type calcium channel subunit alpha-1C; assay: (§4) Inhibition of L-type calcium channel measured using […] kidney cells heterologically expressing alpha-1C subunit; format: functional, cell-based, HEK293; design: ca sol conc 0 mM, temp 21-24 C
[10] = biological target: T2, Voltage-dependent L-type calcium channel subunit alpha-1C; assay: as §2; format: functional, cell-based, Heart, Ventricular myocyte; design: ca sol conc 1.8 mM, temp 22-24 C
[11] = biological target: T1, Voltage-dependent L-type calcium channel subunit alpha-1C; assay: as §1; format: functional, cell-based, Heart, Ventricular myocyte; design: ca sol conc 2.5 mM, temp room
[12] = biological target: T1, Voltage-dependent L-type calcium channel subunit alpha-1C; assay: as §1
[13] = biological target: T1, Voltage-dependent L-type calcium channel subunit alpha-1C; assay: as §1; format: functional, cell-based, Heart, Ventricular myocyte; design: ca sol conc 1 mM, temp 20 C
[14] = biological target: T3, Voltage-dependent L-type calcium channel subunit alpha-1C; assay: as §4; format: functional, cell-based, HEK293; design: ca sol conc 10 mM, temp room
[15] = biological target: T3, Voltage-dependent L-type calcium channel subunit alpha-1C; assay: as §3; format: functional, cell-based; design: ca sol conc 0 mM, temp room; remark: listed apart in the source
[16] = biological target: T3, Voltage-dependent L-type calcium channel subunit alpha-1C; assay: Inhibition of L-type calcium channel measured using […] ovary cells heterologically expressing alpha-1C subunit; format: functional, cell-based, Cricetulus griseus, CHO; design: ca sol conc 0 mM, temp room
[17] = biological target: T1, Voltage-dependent L-type calcium channel subunit alpha-1C; assay: as §1; format: functional, cell-based, Heart, Ventricular myocyte; design: ca sol conc 1.8 mM, temp 20-22 C
[18] = biological target: T1, Voltage-dependent L-type calcium channel subunit alpha-1C; assay: as §1; format: functional, cell-based, Heart, Ventricular myocyte; design: ca sol conc 1.8 mM, temp 20-22 C; remark: listed apart in the source
[19] = biological target: T1, Voltage-dependent L-type calcium channel subunit alpha-1C; assay: as §1; format: functional, cell-based, Heart, Ventricular myocyte; design: ca sol conc 2 mM, temp 22-26 C
[20] = biological target: T1, Voltage-dependent L-type calcium channel subunit alpha-1C; assay: as §1; format: functional, cell-based, Heart, Ventricular myocyte; design: ca sol conc 0 mM, temp 36 C
[21] = biological target: T3, Voltage-dependent L-type calcium channel subunit alpha-1C; assay: as §4; format: functional, cell-based, HEK293; design: ca sol conc 0 mM, temp room
[22] = biological target: T2, Voltage-dependent L-type calcium channel subunit alpha-1C; assay: as §2; format: functional, cell-based, Heart, Ventricular myocyte; design: ca sol conc 1 mM, temp 1 C
[23] = biological target: T2, Voltage-dependent L-type calcium channel subunit alpha-1C; assay: as §2; format: functional, cell-based, Heart, Ventricular myocyte; design: ca sol conc 1.8 mM, temp 21-23 C
[24] = biological target: T1, Voltage-dependent L-type calcium channel subunit alpha-1C; assay: as §1; format: functional, cell-based, Heart, Ventricular myocyte; design: ca sol conc 0 mM, temp 20-25 C

T1 sequence (O35505 whole entry): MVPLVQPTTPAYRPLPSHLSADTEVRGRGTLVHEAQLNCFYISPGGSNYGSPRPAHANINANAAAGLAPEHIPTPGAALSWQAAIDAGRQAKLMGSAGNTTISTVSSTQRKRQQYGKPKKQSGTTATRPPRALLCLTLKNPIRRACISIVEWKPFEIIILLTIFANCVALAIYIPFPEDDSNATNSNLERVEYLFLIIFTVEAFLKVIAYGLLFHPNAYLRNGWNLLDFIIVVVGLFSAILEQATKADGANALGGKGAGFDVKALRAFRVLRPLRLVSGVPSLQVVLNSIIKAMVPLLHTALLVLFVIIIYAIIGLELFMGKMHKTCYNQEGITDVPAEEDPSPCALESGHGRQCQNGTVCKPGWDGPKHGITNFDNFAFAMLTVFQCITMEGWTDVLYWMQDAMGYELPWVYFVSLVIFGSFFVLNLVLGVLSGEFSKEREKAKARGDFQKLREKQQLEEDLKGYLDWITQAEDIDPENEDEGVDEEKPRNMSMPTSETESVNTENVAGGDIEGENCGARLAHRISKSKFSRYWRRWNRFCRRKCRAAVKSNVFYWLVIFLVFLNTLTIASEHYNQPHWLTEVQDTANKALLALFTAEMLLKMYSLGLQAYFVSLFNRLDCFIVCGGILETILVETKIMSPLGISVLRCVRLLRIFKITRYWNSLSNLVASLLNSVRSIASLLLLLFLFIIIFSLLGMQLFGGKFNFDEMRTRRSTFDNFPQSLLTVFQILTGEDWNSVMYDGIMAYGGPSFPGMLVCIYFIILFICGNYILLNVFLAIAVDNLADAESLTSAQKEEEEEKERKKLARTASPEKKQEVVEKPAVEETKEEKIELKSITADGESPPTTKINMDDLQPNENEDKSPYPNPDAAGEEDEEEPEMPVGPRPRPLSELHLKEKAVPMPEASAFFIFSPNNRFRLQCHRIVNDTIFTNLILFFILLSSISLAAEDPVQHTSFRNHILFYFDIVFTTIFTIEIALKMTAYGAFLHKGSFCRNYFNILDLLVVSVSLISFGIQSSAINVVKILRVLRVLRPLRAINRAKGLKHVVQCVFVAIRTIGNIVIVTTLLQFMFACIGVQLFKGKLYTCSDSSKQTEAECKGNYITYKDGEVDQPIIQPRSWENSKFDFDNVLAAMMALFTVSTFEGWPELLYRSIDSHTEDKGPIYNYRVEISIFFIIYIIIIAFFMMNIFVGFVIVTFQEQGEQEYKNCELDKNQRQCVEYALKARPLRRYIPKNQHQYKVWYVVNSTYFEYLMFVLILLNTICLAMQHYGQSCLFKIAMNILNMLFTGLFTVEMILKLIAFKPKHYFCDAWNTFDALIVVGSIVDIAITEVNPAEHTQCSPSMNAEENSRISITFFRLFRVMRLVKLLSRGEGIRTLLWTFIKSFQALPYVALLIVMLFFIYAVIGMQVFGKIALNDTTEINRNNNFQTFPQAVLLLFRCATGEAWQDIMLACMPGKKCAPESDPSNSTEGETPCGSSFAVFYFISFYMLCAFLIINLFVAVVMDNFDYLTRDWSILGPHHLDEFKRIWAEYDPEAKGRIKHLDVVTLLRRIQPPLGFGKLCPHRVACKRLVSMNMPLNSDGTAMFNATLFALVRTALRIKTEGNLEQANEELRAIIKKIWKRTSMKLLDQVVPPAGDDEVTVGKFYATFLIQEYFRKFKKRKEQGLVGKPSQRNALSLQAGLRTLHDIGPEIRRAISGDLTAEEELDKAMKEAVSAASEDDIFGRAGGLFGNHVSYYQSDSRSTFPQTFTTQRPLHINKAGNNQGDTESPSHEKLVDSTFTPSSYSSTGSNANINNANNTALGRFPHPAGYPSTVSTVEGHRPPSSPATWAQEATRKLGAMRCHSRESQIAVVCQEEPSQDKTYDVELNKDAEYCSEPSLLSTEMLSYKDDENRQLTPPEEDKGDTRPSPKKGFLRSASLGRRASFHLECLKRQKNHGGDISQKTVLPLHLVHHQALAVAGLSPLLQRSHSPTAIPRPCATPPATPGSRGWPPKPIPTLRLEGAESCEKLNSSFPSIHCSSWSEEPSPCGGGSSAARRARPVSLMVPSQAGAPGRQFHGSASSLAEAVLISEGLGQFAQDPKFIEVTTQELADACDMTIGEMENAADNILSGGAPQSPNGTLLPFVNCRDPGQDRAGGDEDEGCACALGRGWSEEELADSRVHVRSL
T2 sequence (P22002 whole entry): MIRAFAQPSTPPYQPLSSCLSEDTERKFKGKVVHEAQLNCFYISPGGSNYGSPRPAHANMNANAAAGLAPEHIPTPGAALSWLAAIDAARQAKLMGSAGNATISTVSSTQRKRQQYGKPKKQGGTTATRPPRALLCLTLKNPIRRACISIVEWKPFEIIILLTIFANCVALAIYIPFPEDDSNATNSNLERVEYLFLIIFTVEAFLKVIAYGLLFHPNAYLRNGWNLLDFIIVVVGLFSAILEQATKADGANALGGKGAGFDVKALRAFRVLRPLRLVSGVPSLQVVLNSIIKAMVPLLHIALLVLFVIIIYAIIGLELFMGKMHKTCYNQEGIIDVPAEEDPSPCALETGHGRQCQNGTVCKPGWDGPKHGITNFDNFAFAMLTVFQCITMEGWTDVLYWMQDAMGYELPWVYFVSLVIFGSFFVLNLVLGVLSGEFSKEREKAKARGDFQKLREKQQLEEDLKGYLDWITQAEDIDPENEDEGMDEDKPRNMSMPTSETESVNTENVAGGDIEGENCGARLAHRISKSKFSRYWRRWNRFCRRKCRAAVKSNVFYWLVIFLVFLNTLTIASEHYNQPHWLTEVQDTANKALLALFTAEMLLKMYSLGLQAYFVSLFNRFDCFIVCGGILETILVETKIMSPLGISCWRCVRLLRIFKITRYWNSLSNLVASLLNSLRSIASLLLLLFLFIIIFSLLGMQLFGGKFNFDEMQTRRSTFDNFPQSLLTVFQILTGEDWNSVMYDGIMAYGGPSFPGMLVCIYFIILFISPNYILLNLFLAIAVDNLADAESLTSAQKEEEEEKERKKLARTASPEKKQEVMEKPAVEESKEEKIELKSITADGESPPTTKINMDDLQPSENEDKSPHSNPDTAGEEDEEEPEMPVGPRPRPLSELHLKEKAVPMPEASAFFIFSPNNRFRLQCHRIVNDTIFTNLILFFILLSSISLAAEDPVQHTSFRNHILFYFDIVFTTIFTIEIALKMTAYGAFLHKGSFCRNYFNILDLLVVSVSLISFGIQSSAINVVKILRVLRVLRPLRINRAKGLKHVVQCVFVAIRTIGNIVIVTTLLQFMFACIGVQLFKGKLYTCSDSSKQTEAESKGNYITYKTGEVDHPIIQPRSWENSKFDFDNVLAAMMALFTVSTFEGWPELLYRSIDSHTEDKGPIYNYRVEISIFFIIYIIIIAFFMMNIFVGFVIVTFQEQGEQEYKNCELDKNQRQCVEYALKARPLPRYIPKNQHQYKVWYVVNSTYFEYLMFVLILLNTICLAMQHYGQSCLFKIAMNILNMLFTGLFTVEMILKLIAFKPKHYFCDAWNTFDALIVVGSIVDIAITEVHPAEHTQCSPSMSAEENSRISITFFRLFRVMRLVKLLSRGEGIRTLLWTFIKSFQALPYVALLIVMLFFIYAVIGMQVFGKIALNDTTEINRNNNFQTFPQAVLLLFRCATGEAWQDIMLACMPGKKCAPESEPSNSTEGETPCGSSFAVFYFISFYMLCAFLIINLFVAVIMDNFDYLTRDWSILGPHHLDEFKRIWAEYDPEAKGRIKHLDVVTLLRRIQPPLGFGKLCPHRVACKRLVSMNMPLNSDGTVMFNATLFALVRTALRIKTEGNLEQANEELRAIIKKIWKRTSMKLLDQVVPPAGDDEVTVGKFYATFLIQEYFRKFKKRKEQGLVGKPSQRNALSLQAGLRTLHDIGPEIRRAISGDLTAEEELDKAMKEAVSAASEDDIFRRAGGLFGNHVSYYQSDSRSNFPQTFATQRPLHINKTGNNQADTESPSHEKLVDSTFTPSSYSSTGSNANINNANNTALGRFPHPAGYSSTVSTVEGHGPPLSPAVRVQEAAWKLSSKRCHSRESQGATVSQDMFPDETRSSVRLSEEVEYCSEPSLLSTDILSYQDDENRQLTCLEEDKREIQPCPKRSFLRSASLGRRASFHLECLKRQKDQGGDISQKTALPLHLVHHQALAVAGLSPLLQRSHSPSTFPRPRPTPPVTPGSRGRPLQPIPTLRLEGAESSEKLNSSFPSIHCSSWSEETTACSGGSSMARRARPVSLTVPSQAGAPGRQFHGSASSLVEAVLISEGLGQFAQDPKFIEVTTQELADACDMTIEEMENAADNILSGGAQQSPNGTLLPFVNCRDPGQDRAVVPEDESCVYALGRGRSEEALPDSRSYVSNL

SMILES: CCCC(=O)OCOC(=O)C1=C(C)NC(C)=C(C(=O)OC)C1c1cccc(Cl)c1Cl (centres undefined) [CLEVIDIPINE]
IC50 [1]: 0.0071 µM
IC50 [2]: 0.0788 µM

SMILES: c1ccc(C2(c3ccccc3)CC2C2=NCCN2)cc1 (centres undefined) [CIFENLINE]
IC50 [3]: 30 µM
IC50 [4]: 14.4 µM
IC50 [5]: 14 µM

SMILES: CN(C)CCCC1(c2ccc(F)cc2)OCc2cc(C#N)ccc21 (centres undefined) [CITALOPRAM]
IC50 [6]: 64.5 µM

SMILES: COC(=O)C1=C(C)NC(C)=C(C(=O)O[C@H]2CCN(Cc3ccccc3)C2)[C@H]1c1cccc([N+](=O)[O-])c1 [BARNIDIPINE]
IC50 [7]: 1.2 µM
IC50 [8]: 3.1 µM

SMILES: CCOC(=O)C1=C(COCCN)NC(C)=C(C(=O)OC)C1c1ccccc1Cl (centres undefined) [AMLODIPINE]
IC50 [12]: 0.57 µM

SMILES: COCCOC(=O)C1=C(C)NC(C)=C(C(=O)OC/C=C/c2ccccc2)C1c1cccc([N+](=O)[O-])c1 (centres undefined) [CILNIDIPINE]
IC50 [15]: 12.7 µM
IC50 [8]: 5.3 µM

SMILES: CC1=C(C(=O)OCCCCCCCCCC[N+](C)(C)C)C(c2cccc3nonc23)C(C(=O)OC(C)C)=C(C)N1 (centres undefined)
IC50 [16]: 0.07 µM

SMILES: COc1cc(N)c(Cl)cc1C(=O)NC1CCN(CCCOc2ccc(F)cc2)CC1OC (centres undefined) [CISAPRIDE]
IC50 [17]: 16 µM
IC50 [18]: 46.9 µM

SMILES: CN(C)CCCN1c2ccccc2CCc2ccc(Cl)cc21 [CLOMIPRAMINE]
IC50 [6]: 11.6 µM

SMILES: Cc1cccc(C)c1N(CCCc1cccnc1)C(=O)[C@@H](C)N
IC50 [20]: 55 µM

SMILES: Cc1ccc(O)c([C@H](CCN(C(C)C)C(C)C)c2ccccc2)c1 [TOLTERODINE]
IC50 [5]: 0.143 µM

SMILES: CC[C@H](CO)Nc1nc(NCc2ccccc2)c2ncn(C(C)C)c2n1 [SELICICLIB]
IC50 [21]: 23.4 µM

Other lines, results leading:

IC50 [9]: 466 µM
SMILES: CC(C)Cn1c(=O)n(C)c(=O)c2[nH]cnc21 [ISOBUTYLMETHYLXANTHINE]

IC50 [10]: 11 µM
IC50 [11]: 20 µM
SMILES: O=c1c(-c2ccc(O)cc2)coc2cc(O)cc(O)c12 [GENISTEIN]

IC50 [13]: 17 µM
SMILES: CC(NCCC(c1ccccc1)c1ccccc1)c1ccccc1 (centres undefined) [FENDILINE]

IC50 [3]: 0.009 µM
SMILES: C=CCN1CCN(CC(C)(C)COC(=O)C2=C(C)NC(C)=C(C(=O)OC)C2c2cccc([N+](=O)[O-])c2)CC1 (centres undefined) [IGANIDIPINE]

IC50 [6]: 11.7 µM
SMILES: CNCCCN1c2ccccc2CCc2ccccc21 [DESIPRAMINE]

IC50 [14]: 125 µM
SMILES: O=C1NC(=O)C(c2ccccc2)(c2ccccc2)N1 [PHENYTOIN]

IC50 [19]: 15.3 µM
SMILES: CC(N)CCCC(C)(C)O (centres undefined) [HEPTAMINOL]

IC50 [22]: 561 µM
SMILES: COc1ccc(C(C)=O)c(O)c1 [PAEONOL]

IC50 [23]: 9.5 µM
SMILES: Cc1c(C)c2c(c(C)c1O)CCC(C)(COc1ccc(CC3SC(=O)NC3=O)cc1)O2 (centres undefined) [TROGLITAZONE]

IC50 [24]: 0.3 µM
SMILES: COCCOC(=O)C1=C(C)NC(C)=C(C(=O)OC(C)C)C1c1cccc([N+](=O)[O-])c1 (centres undefined) [NIMODIPINE]

Reference: ChEMBL document CHEMBL3436046, “Predictive model for L-type channel inhibition: multichannel block in QT prolongation risk assessment” (J Appl Toxicol, 2012)
